Consider seven molecules from US8114863B2, “Compounds comprising short aminoalcohol chains and metal complexes for medical imaging” (Guerbet, priority 2005, dated 2012).

The nature of series [1]: Relaxivity measurements (r1 from relaxation times T1/T2, Minispec 120). Type of series: physicochemical. The procedure:
[…] The longitudinal relaxation time T1 is measured using an inversion recovery sequence and the transverse relaxation time T2 is measured by a CPMG technique.
The relaxation rates R1 (=1/T1) and R2 (=1/T2) were calculated for different total metal concentrations (varying from 0.1×10^−3 to 1×10^−3 mol/l) in aqueous solution at 37° C. The correlation between R1 or R2 as a function of the concentration is linear and the slope represents the relaxivity r1 (RUC) or r2 (R2/C) expressed as (1/second)×(1/mmol/l), i.e. mM^−1·s^−1.
The compounds were prepared in different media: water, NaCl, citrate, phosphate, carbonate, cocktail of ions.

Series [2] in a line: Osmolality (Wescor 5220 tonometer). The class given is physicochemical. The conditions noted are these: at administration dose of the product in man (500 mM; Gadovist 1000 mM).
A further series concerns C6 glioma. As to the kind of experiment: In vivo MRI imaging study, detection of C6 glioma in rat. The conditions noted are these: 0.1 mmol/kg, 2.35 T. The procedure:
Compounds II (example 2) was compared to Dotarem® ans MultiHance(® for the detection of C6 glioma in rat (n=6/product). Each animal received all the three products at the same dose (0.1 mmol/kg) in a random order. A minimal delay of 4 hours has been respected between the injections in order to avoid remaining contrast from the previous injection. Enhancement was follow-up during 30 min with a T1w-Spin Echo sequence (TR/TE=498/14.2 ms, FOV=4×4 cm2, slice thickness 2 mm, interslice distance 3 mm, 192×192 matrix, 2 accumulation) on a 2.35 T system (BioSpec 24/40, Bruker, Germany). Enhancement of the lesions have been quantitatively (ROIs) and qualitatively (blinded cotation) evaluated. […] However among the three contrast agents, compound II induced a 2 fold-more pronounced contrast between the lesion and the healthy brain.

For the molecule `O=C(O)CCC(C(=O)O)N1CCN(C(CCC(=O)O)C(=O)O)CCN(C(CCC(=O)O)C(=O)O)CCN(C(CCC(=O)O)C(=O)O)CC1` (stereo not shown), in series [1], the “Relaxivity r1 in water (mM − 1s − 1) at 0.5 T” value is recorded as 6.2 mM − 1s − 1. Regarding `O=C([O-])CN1CCN(CC(=O)[O-])CCN([C@H](CO)[C@H](O)CO)CCN(CC(=O)[O-])CC1.[Gd+3]` (racemic) [Gadovist ® (1M)], in series [2], the “Osmality (mOsm/kg)” value amounted to 1400 mOsm/kg.

In series [1] (field not stated), `O=C(O)C(CCO)N1CCN(C(CCO)C(=O)O)Cc2cccc(n2)CN(C(CCO)C(=O)O)CC1` (stereo not shown) [Comparative Example 9] had a relaxivity of 6. Also, the “Relaxivity r1 in water (mM − 1s − 1) at 0.5 T” value in series [1] is 6 mM − 1s − 1. Take `CNC[C@H](O)[C@@H](O)[C@H](O)[C@H](O)CO.O=C([O-])CN1CCN(CC(=O)[O-])CCN(CC(=O)O)CCN(CC(=O)[O-])CC1.[Gd+3]` [Dotarem ®]: in series [2], the “Osmality (mOsm/kg)” value came out at 1350 mOsm/kg. Moreover, the “depiction of the lesions” value with C6 glioma was “All the lesions have been depicted”. In addition, the “Relaxivity r1 at 60 MHz in water” value in series [1] turned out to be 3.5 mM⁻¹ s⁻¹.

Take `CNC[C@H](O)[C@@H](O)[C@H](O)[C@H](O)CO.CNC[C@H](O)[C@@H](O)[C@H](O)[C@H](O)CO.O=C([O-])CN(CCN(CC(=O)[O-])CC(=O)O)CCN(CC(=O)[O-])CC(=O)O.[Gd+3]` [Magnevist ®]: the “Osmality (mOsm/kg)” value in series [2] worked out at 1950 mOsm/kg. In series [1], the “Relaxivity r1 at 60 MHz in water” value amounted to 3.5 mM⁻¹ s⁻¹.

`CNC[C@H](O)[C@@H](O)[C@H](O)[C@H](O)CO.CNC[C@H](O)[C@@H](O)[C@H](O)[C@H](O)CO.O=C([O-])CN(CCN(CC(=O)[O-])CC(=O)O)CCN(CC(=O)O)C(COCc1ccccc1)C(=O)[O-].[Gd+3]` (stereo not shown) [MultiHance]: the “depiction of the lesions” value in the series on C6 glioma is “All the lesions have been depicted”. On to `O=C(CCCC(C(=O)O)N1CCN(C(CCCC(=O)NCC(O)CO)C(=O)O)Cc2cccc(n2)CN(C(CCCC(=O)NCC(O)CO)C(=O)O)CC1)NCC(O)CO` (stereo not shown) [complex 7], for which the “relaxivity at 20 MHz” value in series [1] (20 MHz) came out at 14.7 mM^−1s^−1 Gd^−1. The “relaxivity at 40 MHz” value in series [1] (40 MHz) was found to be 12.8 mM^−1s^−1 Gd^−1. The “relaxivity at 300 MHz” value in series [1] (300 MHz) is reported as 10.4 mM^−1s^−1 Gd^−1.
